US7112586B2, “Substituted diamine derivatives useful as motilin antagonists” (Ortho-McNeil Pharmaceutical, Inc., priority 2000, dated 2006)

Biological target: T1, Motilin Receptor (Oryctolagus cuniculus, UniProt G1T803)
T1 construct: The muscle tissue was homogenized in 10 volumes of 50 mM Tris-Cl; from tissue; host or cells: rabbit colon smooth muscle, crude membrane homogenate
Assay: Motilin receptor binding, rabbit colon membranes, 125I porcine motilin
Set-up: Rabbit Colon % Inh / inhibition / % Inh (Rabbit colon): dose or concentration left out as unconfirmed
Conditions: rabbit colon membranes; for % Inh (Rabbit colon): 125I porcine motilin binding; for inhibition: read-out: Rabbit Colon % Inh; for IC50: read-out: Rabbit Colon IC50
Protocol: Rabbit colon was removed, dissected free from the mucosa and serosa, and diced into small pieces. The muscle tissue was homogenized in 10 volumes of 50 mM Tris-Cl, 10 mM MgCl2, 0.1 mg/ml bacitracin, and 0.25 mM Peflabloc, at pH 7.5 in a Polytron (29000 rpm, 4×15 seconds). The homogenate was centrifuged at 1000×g for 15 minutes and the supernatant discarded. The pellet was washed twice before being suspended in homogenizing buffer. The crude homogenate was resuspended through a 23 gauge needle before storing at −80° C. […] After 60 minutes at 30° C., the samples were cooled in ice, centrifuged in the cold at 13000×g for 1 minute. The pellet was washed twice with 1 ml of cold saline, the supernatant was aspirated, and the pellet at the bottom of the tube counted in a gamma counter. Non-specific binding was determined by the inclusion of 1 mM of unlabeled motilin. IC50 values were determined from Kaleidograph curves.

T1 sequence (G1T803 1-400): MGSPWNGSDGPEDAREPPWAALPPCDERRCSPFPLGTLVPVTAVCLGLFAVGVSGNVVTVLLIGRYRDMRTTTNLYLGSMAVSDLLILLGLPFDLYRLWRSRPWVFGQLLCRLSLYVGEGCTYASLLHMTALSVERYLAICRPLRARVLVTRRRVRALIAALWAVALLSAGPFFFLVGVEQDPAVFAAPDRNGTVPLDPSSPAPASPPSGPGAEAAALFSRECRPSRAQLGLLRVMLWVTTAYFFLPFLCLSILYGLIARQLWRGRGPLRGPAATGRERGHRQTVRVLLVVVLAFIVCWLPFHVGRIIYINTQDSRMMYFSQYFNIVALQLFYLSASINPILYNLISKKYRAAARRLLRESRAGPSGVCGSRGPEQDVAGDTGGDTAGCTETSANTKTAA

Row | Rabbit Colon % Inh [%] | Compound | also measured
1 | 34 | O=C(NC1CCCC(CN(C(=O)Nc2ccccc2)c2cccc(OCCN3CCOCC3)c2)C1)c1cccc([N+](=O)[O-])c1 (stereo not shown) [compound 80] | 
2 | 56 | O=C(NC1CCCC(CN(C(=O)Nc2ccccc2)c2cccc(OCCN3CCOCC3)c2)C1)C(c1ccccc1)c1ccccc1 (stereo not shown) [compound 81] | 
3 | 0 | O=C(Nc1ccccc1)N(CC1CCCC(N(Cc2ccccc2)C(=O)c2cc(C(F)(F)F)cc(C(F)(F)F)c2)C1)c1cccc(OCCN2CCOCC2)c1 (stereo not shown) [compound 82] | 
4 | 3 | O=C(Nc1ccccc1)N(CC1CCCC(N(Cc2ccccc2)C(=O)c2ccc(-c3ccccc3)cc2)C1)c1cccc(OCCN2CCOCC2)c1 (stereo not shown) [compound 83] | 
5 |  | O=C(Nc1ccccc1)N(CC1CCCC(NCc2ccccc2)C1)c1cccc(OCCN2CCOCC2)c1 (stereo not shown) [compound 84] | % Inh (Rabbit colon): 12%
6 |  | O=C(Nc1ccccc1)N(CC1CCCC(NCc2cccc(Cl)c2)C1)c1cccc(OCCN2CCOCC2)c1 (stereo not shown) [compound 85] | % Inh (Rabbit colon): 28%
7 | 16 | O=C(Nc1ccccc1)N(CC1CCCC(N(Cc2cccc(Cl)c2)C(=O)c2cccc(O)c2)C1)c1cccc(OCCN2CCOCC2)c1 (stereo not shown) [compound 86] | 
8 |  | O=C(Nc1ccccc1)N(CC1CCCC(NCc2cc(Cl)cc(Cl)c2)C1)c1cccc(OCCN2CCOCC2)c1 (stereo not shown) [compound 87] | % Inh (Rabbit colon): 22%
9 |  | O=C(Nc1ccccc1)N(CC1CCCC(NCc2cccc3ccccc23)C1)c1cccc(OCCN2CCOCC2)c1 (stereo not shown) [compound 88] | % Inh (Rabbit colon): 0%
10 | 36 | O=C(c1ccc(F)cc1)N(CC1CCCC(NC(=O)C(Cl)(Cl)Cl)C1)c1cccc(OCCN2CCOCC2)c1 (stereo not shown) [compound 91] | 
11 | 80 | O=C(c1ccc(F)cc1)N(CC1CCCC(N(Cc2cccc(Cl)c2Cl)C(=O)C(Cl)(Cl)Cl)C1)c1cccc(OCCN2CCOCC2)c1 (stereo not shown) [compound 92] | 
12 | 28 | O=C(c1ccc(F)cc1)N(CC1CCCC(N(Cc2cccc3ccccc23)C(=O)C(Cl)(Cl)Cl)C1)c1cccc(OCCN2CCOCC2)c1 (stereo not shown) [compound 94] | 
13 | 51 | O=C(c1ccc(F)cc1)N(CC1CCCC(N(Cc2ccc(Cl)cc2)C(=O)C(Cl)(Cl)Cl)C1)c1cccc(OCCN2CCOCC2)c1 (stereo not shown) [compound 95] | 
14 | 56 | COc1cccc(CN(C(=O)C(Cl)(Cl)Cl)C2CCCC(CN(C(=O)c3ccc(F)cc3)c3cccc(OCCN4CCOCC4)c3)C2)c1 (stereo not shown) [compound 97] | 
15 |  | O=C(c1ccc(F)cc1)N(CC1CCCC(N(Cc2cc(Cl)cc(Cl)c2)C(=O)C(Cl)(Cl)Cl)C1)c1cccc(OCCN2CCOCC2)c1 (stereo not shown) [compound 98] | inhibition: 75%; IC50: 760 nM
16 |  | O=C(c1ccc(F)cc1)N(CC1CCCC(N(Cc2ccc(Cl)c(Cl)c2)C(=O)C(Cl)(Cl)Cl)C1)c1cccc(OCCN2CCOCC2)c1 (stereo not shown) [compound 99] | inhibition: 62%; IC50: 572 nM
17 | 78 | O=C(c1ccc(F)cc1)N(CC1CCCC(N(Cc2cccc(F)c2)C(=O)C(Cl)(Cl)Cl)C1)c1cccc(OCCN2CCOCC2)c1 (stereo not shown) [compound 100] | 
18 | 59 | O=C(c1ccc(F)cc1)N(CC1CCCC(N(Cc2cccc(Cl)c2)C(=O)C(c2ccccc2)c2ccccc2)C1)c1cccc(OCCN2CCOCC2)c1 (stereo not shown) [compound 101] | 
19 | 47 | O=C(c1ccc(F)cc1)N(CC1CCCC(N(Cc2cccc(Cl)c2)C(=O)c2cccc([N+](=O)[O-])c2)C1)c1cccc(OCCN2CCOCC2)c1 (stereo not shown) [compound 102] | 
20 | 2 | O=C(c1ccc(F)cc1)N(CC1CCCC(N(Cc2cccc(Cl)c2)C(=O)c2ccc3ccccc3c2)C1)c1cccc(OCCN2CCOCC2)c1 (stereo not shown) [compound 103] | 
21 | 30 | O=C(c1ccc(F)cc1)N(CC1CCCC(N(Cc2cccc(Cl)c2)C(=O)CCc2ccccc2)C1)c1cccc(OCCN2CCOCC2)c1 (stereo not shown) [compound 104] | 
22 |  | COc1cccc(C(=O)N(Cc2cccc(Cl)c2)C2CCCC(CN(C(=O)c3ccc(F)cc3)c3cccc(OCCN4CCOCC4)c3)C2)c1 (stereo not shown) [compound 106] | inhibition: 69%; IC50: 1050 nM
23 | 29 | O=C(c1ccc(F)cc1)N(CC1CCCC(N(Cc2cccc(Cl)c2)C(=O)c2cc(C(F)(F)F)cc(C(F)(F)F)c2)C1)c1cccc(OCCN2CCOCC2)c1 (stereo not shown) [compound 107] | 
24 |  | O=C(c1ccc(F)cc1)N(CC1CCCC(N(Cc2cccc(Cl)c2)C(=O)C(F)(F)F)C1)c1cccc(OCCN2CCOCC2)c1 (stereo not shown) [compound 108] | inhibition: 70%; IC50: 815 nM
25 | 27 | O=C(c1ccc(F)cc1)N(CC1CCCC(N(Cc2cccc(Cl)c2)C(=O)c2ccc(-c3ccccc3)cc2)C1)c1cccc(OCCN2CCOCC2)c1 (stereo not shown) [compound 109] | 
26 |  | O=C(c1ccc(F)cc1)N(CC1CCCC(N(Cc2cccc(Cl)c2)C(=O)C(Cl)(Cl)Cl)C1)c1cccc(OCCN2CCOCC2)c1 (stereo not shown) [compound 111] | inhibition: 72%; IC50: 880 nM

Row | Rabbit Colon % Inh [%] | Compound | also measured
27 |  | O=C(c1ccc(F)cc1)N(CC1CCCC(N(Cc2ccccc2)C(=O)C(c2ccccc2)c2ccccc2)C1)c1cccc(OCCN2CCOCC2)c1 (stereo not shown) [compound 112] | inhibition: 70%; IC50: 480 nM
28 | 51 | O=C(c1ccc(F)cc1)N(CC1CCCC(N(Cc2ccccc2)C(=O)c2cccc([N+](=O)[O-])c2)C1)c1cccc(OCCN2CCOCC2)c1 (stereo not shown) [compound 113] | 
29 | 49 | O=C(c1ccc(F)cc1)N(CC1CCCC(N(Cc2ccccc2)C(=O)c2ccc3ccccc3c2)C1)c1cccc(OCCN2CCOCC2)c1 (stereo not shown) [compound 114] | 
30 | 26 | O=C(c1ccc(F)cc1)N(CC1CCCC(N(Cc2ccccc2)C(=O)CCc2ccccc2)C1)c1cccc(OCCN2CCOCC2)c1 (stereo not shown) [compound 115] | 
31 |  | CC(C)(C)C(=O)N(Cc1ccccc1)C1CCCC(CN(C(=O)c2ccc(F)cc2)c2cccc(OCCN3CCOCC3)c2)C1 (stereo not shown) [compound 116] | inhibition: 61%; IC50: 772 nM
32 | 17 | COc1cccc(C(=O)N(Cc2ccccc2)C2CCCC(CN(C(=O)c3ccc(F)cc3)c3cccc(OCCN4CCOCC4)c3)C2)c1 (stereo not shown) [compound 117] | 
33 | 58 | O=C(c1ccc(F)cc1)N(CC1CCCC(N(Cc2ccccc2)C(=O)c2ccc(-c3ccccc3)cc2)C1)c1cccc(OCCN2CCOCC2)c1 (stereo not shown) [compound 118] | 
34 | 22 | O=C(c1ccc(F)cc1)N(CC1CCCC(N(Cc2ccccc2)C(=O)c2cc(C(F)(F)F)cc(C(F)(F)F)c2)C1)c1cccc(OCCN2CCOCC2)c1 (stereo not shown) [compound 119] | 
35 |  | O=C(c1ccc(F)cc1)N(CC1CCCC(N(Cc2ccccc2)C(=O)C(F)(F)F)C1)c1cccc(OCCN2CCOCC2)c1 (stereo not shown) [compound 120] | inhibition: 69%; IC50: 954 nM
36 |  | O=C(c1ccc(F)cc1)N(CC1CCCC(N(Cc2ccccc2)C(=O)C(Cl)(Cl)Cl)C1)c1cccc(OCCN2CCOCC2)c1 (stereo not shown) [compound 122] | inhibition: 64%; IC50: 840 nM
37 | 8 | O=C(c1ccc(F)cc1)N(CC1CCCC(N(Cc2ccccc2)S(=O)(=O)c2ccc3ccccc3c2)C1)c1cccc(OCCN2CCOCC2)c1 (stereo not shown) [compound 123] | 
38 |  | O=C(c1ccc(F)cc1)N(CC1CCCC(N(Cc2ccccc2)C(=O)c2ccco2)C1)c1cccc(OCCN2CCOCC2)c1 (stereo not shown) [compound 124] | inhibition: 70%; IC50: 904 nM
39 | 25 | O=C(c1ccc(F)cc1)N(CC1CCCC(N(Cc2ccccc2)C(=O)Nc2ccccc2)C1)c1cccc(OCCN2CCOCC2)c1 (stereo not shown) [compound 125] | 
40 |  | O=C(CCC(=O)N(Cc1ccc(F)cc1)c1cccc(OCCN2CCOCC2)c1)N(CCc1ccccc1)Cc1ccccc1 [compound 128] | inhibition: 75%; IC50: 230 nM
41 |  | O=C(CCCC(=O)N(Cc1ccc(F)cc1)c1cccc(OCCN2CCOCC2)c1)N(CCc1ccccc1)Cc1ccccc1 [compound 129] | inhibition: 90%; IC50: 58 nM
42 | 8 | O=C(CCc1ccccc1)N[C@@H](Cc1ccccc1)C(=O)N(Cc1ccc(F)cc1)c1cccc(OCCN2CCOCC2)c1 [compound 130] | 
43 | 19 | O=C([C@H](Cc1ccccc1)NC(=O)C(Cl)(Cl)Cl)N(Cc1ccc(F)cc1)c1cccc(OCCN2CCOCC2)c1 [compound 131] | 
44 | 10 | O=C(N[C@@H](Cc1ccccc1)C(=O)N(Cc1ccc(F)cc1)c1cccc(OCCN2CCOCC2)c1)c1ccc(-c2ccccc2)cc1 [compound 132] | 
45 | 6 | O=C(N[C@@H](Cc1ccccc1)C(=O)N(Cc1ccc(F)cc1)c1cccc(OCCN2CCOCC2)c1)C(c1ccccc1)c1ccccc1 [compound 133] | 
46 | 0 | COc1cccc(CC(=O)N[C@@H](Cc2ccccc2)C(=O)N(Cc2ccc(F)cc2)c2cccc(OCCN3CCOCC3)c2)c1 [compound 134] | 
47 | 8 | O=C([C@H](Cc1ccccc1)NS(=O)(=O)c1ccc(-c2ccccc2)cc1)N(Cc1ccc(F)cc1)c1cccc(OCCN2CCOCC2)c1 [compound 135] | 
48 | 43 | O=C(c1cccc(CN(C(=O)c2ccc(F)cc2)c2cccc(OCCN3CCOCC3)c2)c1)N(CCc1ccccc1)Cc1ccccc1 [compound 136] | 
49 | 30 | O=C(NC(c1ccccc1)c1ccccc1)c1cccc(CN(C(=O)c2ccc(F)cc2)c2cccc(OCCN3CCOCC3)c2)c1 [compound 137] | 
50 |  | O=C(NCCc1ccccc1)c1cccc(CN(C(=O)c2ccc(F)cc2)c2cccc(OCCN3CCOCC3)c2)c1 [compound 138] | inhibition: 36%
51 | 45 | CC(C)(C)CN(Cc1ccccc1)C(=O)c1cccc(CN(C(=O)c2ccc(F)cc2)c2cccc(OCCN3CCOCC3)c2)c1 [compound 140] | 
52 | 21 | CC(C)(C)CN(Cc1cccc(Cl)c1)C(=O)c1cccc(CN(C(=O)c2ccc(F)cc2)c2cccc(OCCN3CCOCC3)c2)c1 [compound 141] | 
